Assay results published in the NIST ThermoML archive (doi:10.1016/j.fluid.2009.01.011).
± gives the expanded uncertainty stated by the source.

Assay: activity coefficient (dimensionless); of the first substance listed, at infinite dilution; xn = mol fraction of the nth substance listed
Details: Liquid, Chromatography, x1 = 0

Structure (SMILES) | activity coefficient (318.15 K) | activity coefficient (328.15 K) | activity coefficient (338.15 K) | activity coefficient (348.15 K) | activity coefficient (358.15 K) | activity coefficient (368.15 K) | activity coefficient (298.15 K) | activity coefficient (308.15 K)
O [water] + CCCC[N+]1(C)CCCC1.O=S(=O)([O-])C(F)(F)F | 0.865 ± 0.032 | 0.83 ± 0.032 | 0.794 ± 0.031 | 0.765 ± 0.031 | 0.739 ± 0.03 | 0.712 ± 0.03 | – | –
CO [methanol] + CCCC[N+]1(C)CCCC1.O=S(=O)([O-])C(F)(F)F | 0.655 ± 0.029 | 0.628 ± 0.029 | 0.604 ± 0.028 | 0.581 ± 0.028 | 0.563 ± 0.028 | 0.543 ± 0.028 | 0.717 ± 0.03 | 0.684 ± 0.029
CCO [ethanol] + CCCC[N+]1(C)CCCC1.O=S(=O)([O-])C(F)(F)F | 0.948 ± 0.034 | 0.9 ± 0.033 | 0.862 ± 0.032 | 0.827 ± 0.032 | 0.791 ± 0.031 | 0.763 ± 0.031 | 1.05 ± 0.04 | 1 ± 0.04
C#CCCCC [1-hexyne] + CCCC[N+]1(C)CCCC1.O=S(=O)([O-])C(F)(F)F | 3.76 ± 0.17 | 3.85 ± 0.17 | 3.94 ± 0.17 | 4.02 ± 0.18 | 4.09 ± 0.18 | 4.18 ± 0.18 | 3.57 ± 0.16 | 3.66 ± 0.16
CCCCCCCC [octane] + CCCC[N+]1(C)CCCC1.O=S(=O)([O-])C(F)(F)F | 79.4 ± 3.5 | 73.1 ± 3.3 | 67.2 ± 3 | 62.9 ± 2.8 | 58.4 ± 2.6 | 54.4 ± 2.4 | 95.2 ± 4.3 | 86.9 ± 3.9
C=CCCC [1-pentene] + CCCC[N+]1(C)CCCC1.O=S(=O)([O-])C(F)(F)F | 15.3 ± 0.7 | 14.4 ± 0.6 | 13.5 ± 0.6 | 12.8 ± 0.6 | 12.2 ± 0.5 | – | 17.6 ± 0.8 | 16.3 ± 0.7
Cc1cccc(C)c1 [1,3-dimethylbenzene] + CCCC[N+]1(C)CCCC1.O=S(=O)([O-])C(F)(F)F | 3.45 ± 0.15 | 3.47 ± 0.15 | 3.48 ± 0.15 | 3.5 ± 0.15 | 3.51 ± 0.15 | 3.53 ± 0.16 | – | 3.44 ± 0.15
C#CCCCCC [1-heptyne] + CCCC[N+]1(C)CCCC1.O=S(=O)([O-])C(F)(F)F | 5.39 ± 0.24 | 5.47 ± 0.24 | 5.56 ± 0.25 | 5.64 ± 0.25 | 5.7 ± 0.25 | 5.78 ± 0.25 | 5.21 ± 0.23 | 5.3 ± 0.23
C1CCOC1 [tetrahydrofuran] + CCCC[N+]1(C)CCCC1.O=S(=O)([O-])C(F)(F)F | 1.41 ± 0.06 | 1.42 ± 0.06 | 1.43 ± 0.06 | 1.44 ± 0.06 | 1.45 ± 0.06 | 1.46 ± 0.06 | 1.38 ± 0.05 | 1.39 ± 0.06
C#CCCCCCC [1-octyne] + CCCC[N+]1(C)CCCC1.O=S(=O)([O-])C(F)(F)F | 7.7 ± 0.34 | 7.76 ± 0.34 | 7.83 ± 0.35 | 7.88 ± 0.35 | 7.94 ± 0.35 | 7.99 ± 0.35 | 7.56 ± 0.33 | 7.63 ± 0.34
C1CCCCCCC1 [cyclooctane] + CCCC[N+]1(C)CCCC1.O=S(=O)([O-])C(F)(F)F | 31.4 ± 1.4 | 29.1 ± 1.3 | 26.9 ± 1.2 | 25.1 ± 1.1 | 23.5 ± 1 | 22.2 ± 1 | 37.4 ± 1.7 | 34 ± 1.5
Cc1ccc(C)cc1 [1,4-dimethylbenzene] + CCCC[N+]1(C)CCCC1.O=S(=O)([O-])C(F)(F)F | 3.35 ± 0.15 | 3.38 ± 0.15 | 3.4 ± 0.15 | 3.43 ± 0.15 | 3.45 ± 0.15 | 3.48 ± 0.15 | – | 3.32 ± 0.15
CCc1ccccc1 [ethylbenzene] + CCCC[N+]1(C)CCCC1.O=S(=O)([O-])C(F)(F)F | 3.46 ± 0.15 | 3.48 ± 0.15 | 3.5 ± 0.15 | 3.51 ± 0.15 | 3.53 ± 0.16 | 3.54 ± 0.16 | 3.43 ± 0.15 | 3.45 ± 0.15
CCCCO [butan-1-ol] + CCCC[N+]1(C)CCCC1.O=S(=O)([O-])C(F)(F)F | – | 1.49 ± 0.06 | 1.42 ± 0.06 | 1.35 ± 0.05 | 1.29 ± 0.05 | 1.24 ± 0.05 | – | –
CCCCCCCCC [nonane] + CCCC[N+]1(C)CCCC1.O=S(=O)([O-])C(F)(F)F | 111 ± 5 | 100 ± 5 | 92.4 ± 4.1 | 85.2 ± 3.8 | 78.9 ± 3.5 | 73.3 ± 3.3 | 135 ± 6 | 122 ± 5
C=CCCCC [hex-1-ene] + CCCC[N+]1(C)CCCC1.O=S(=O)([O-])C(F)(F)F | 19.2 ± 0.9 | 18.1 ± 0.8 | 17.3 ± 0.8 | 16.4 ± 0.7 | 15.7 ± 0.7 | 15 ± 0.7 | 21.6 ± 1 | 20.2 ± 0.9
C=CCCCCC [1-heptene] + CCCC[N+]1(C)CCCC1.O=S(=O)([O-])C(F)(F)F | 26.1 ± 1.2 | 24.8 ± 1.1 | 23.6 ± 1 | 22.6 ± 1 | 21.6 ± 1 | 20.8 ± 0.9 | 29 ± 1.3 | 27.5 ± 1.2
COC(C)(C)C [2-methoxy-2-methylpropane] + CCCC[N+]1(C)CCCC1.O=S(=O)([O-])C(F)(F)F | 5.64 ± 0.25 | 5.63 ± 0.25 | 5.62 ± 0.25 | 5.6 ± 0.25 | 5.59 ± 0.25 | 5.58 ± 0.25 | 5.67 ± 0.25 | 5.65 ± 0.25
c1ccccc1 [benzene] + CCCC[N+]1(C)CCCC1.O=S(=O)([O-])C(F)(F)F | 1.46 ± 0.06 | 1.48 ± 0.06 | 1.5 ± 0.06 | 1.53 ± 0.06 | 1.54 ± 0.06 | 1.56 ± 0.06 | 1.41 ± 0.06 | 1.44 ± 0.06
C1CCCCC1 [cyclohexane] + CCCC[N+]1(C)CCCC1.O=S(=O)([O-])C(F)(F)F | 21.4 ± 1 | 19.7 ± 0.9 | 18.1 ± 0.8 | 16.8 ± 0.7 | 15.6 ± 0.7 | 14.6 ± 0.6 | 25.7 ± 1.1 | 23.4 ± 1
c1ccsc1 [thiophene] + CCCC[N+]1(C)CCCC1.O=S(=O)([O-])C(F)(F)F | 1.06 ± 0.04 | 1.08 ± 0.04 | 1.1 ± 0.04 | 1.11 ± 0.04 | 1.13 ± 0.04 | 1.14 ± 0.04 | 1.02 ± 0.04 | 1.04 ± 0.04
CCCO [propan-1-ol] + CCCC[N+]1(C)CCCC1.O=S(=O)([O-])C(F)(F)F | 1.2 ± 0.05 | 1.14 ± 0.04 | 1.08 ± 0.04 | 1.04 ± 0.04 | 0.995 ± 0.035 | 0.953 ± 0.034 | – | 1.26 ± 0.05
